Experimental data: paper PMC7265341, “Quantifying CDK inhibitor selectivity in live cells” (Nature Communications, 2020)
Read-outs that look alike come from different tables or passages of the source.

Assays:
CDK14/Cyclin Y = CDK14/Cyclin Y (Homo sapiens, UniProt O94921); assay: NanoBRET live-cell target engagement, CDK14-NanoLuc/Cyclin Y in HEK-293; assay type: binding; conditions: 10µM
CDK13/Cyclin K = CDK13/Cyclin K (Homo sapiens, UniProt Q14004); assay: NanoBRET live-cell target engagement, CDK13-NanoLuc/Cyclin K in HEK-293; assay type: binding; conditions: 10µM
CDK8/Cyclin C = CDK8/Cyclin C (Homo sapiens, UniProt P49336); assay: NanoBRET live-cell target engagement, NanoLuc-CDK8/Cyclin C in HEK-293; assay type: binding; conditions: 10µM
CDK4/Cyclin D1 = CDK4/Cyclin D1 (Homo sapiens, UniProt P11802); assay: NanoBRET live-cell target engagement, NanoLuc-CDK4/Cyclin D1 in HEK-293; assay type: binding; conditions: 10µM
CDK16/Cyclin Y = CDK16/Cyclin Y (Homo sapiens, UniProt Q00536); assay: NanoBRET live-cell target engagement, CDK16-NanoLuc/Cyclin Y in HEK-293; assay type: binding; conditions: 10µM
CDK6/Cyclin D1 = CDK6/Cyclin D1 (Homo sapiens, UniProt Q00534); assay: NanoBRET live-cell target engagement, NanoLuc-CDK6/Cyclin D1 in HEK-293; assay type: binding; conditions: 10µM
CDK5/CDK5R1 = CDK5/CDK5R1 (Homo sapiens, UniProt Q00535); assay: NanoBRET live-cell target engagement, CDK5-NanoLuc/CDK5R1 in HEK-293; assay type: binding; conditions: 10µM
CDK7 = CDK7 (Homo sapiens, UniProt P50613); assay: NanoBRET live-cell target engagement, NanoLuc-CDK7 in HEK-293; assay type: binding; conditions: 10µM
CDK19/Cyclin C = CDK19/Cyclin C (Homo sapiens, UniProt Q9BWU1); assay: NanoBRET live-cell target engagement, NanoLuc-CDK19/Cyclin C in HEK-293; conditions: 10µM
CDK1/Cyclin E1 = CDK1/Cyclin E1 (Homo sapiens, UniProt P06493); assay: NanoBRET live-cell target engagement, CDK1-NanoLuc/Cyclin E1 in HEK-293; assay type: binding; conditions: 10µM
CDK18/Cyclin Y = CDK18/Cyclin Y (Homo sapiens, UniProt Q07002); assay: NanoBRET live-cell target engagement, CDK18-NanoLuc/Cyclin Y in HEK-293; assay type: binding; conditions: 10µM
CDK11B/Cyclin L2 = CDK11B/Cyclin L2 (Homo sapiens, UniProt P21127); assay: NanoBRET live-cell target engagement, CDK11B-NanoLuc/Cyclin L2 in HEK-293; assay type: binding; conditions: 10µM
CDK9/Cyclin K = CDK9/Cyclin K (Homo sapiens, UniProt P50750); assay: NanoBRET live-cell target engagement, NanoLuc-CDK9/Cyclin K in HEK-293; assay type: binding; conditions: 10µM
CDK15/Cyclin Y = CDK15/Cyclin Y (Homo sapiens, UniProt Q96Q40); assay: NanoBRET live-cell target engagement, NanoLuc-CDK15/Cyclin Y in HEK-293; assay type: binding; conditions: 10µM
CDK17/Cyclin Y = CDK17/Cyclin Y (Homo sapiens, UniProt Q00537); assay: NanoBRET live-cell target engagement, CDK17-NanoLuc/Cyclin Y in HEK-293; assay type: binding; conditions: 10µM
CDK11A/Cyclin L2 = target: T1, CDK11A/Cyclin L2 (Homo sapiens, UniProt Q9UQ88); assay: NanoBRET live-cell target engagement, CDK11A-NanoLuc/Cyclin L2 in HEK-293; assay type: binding; conditions: 10µM
T1 sequence (Q9UQ88 1-783): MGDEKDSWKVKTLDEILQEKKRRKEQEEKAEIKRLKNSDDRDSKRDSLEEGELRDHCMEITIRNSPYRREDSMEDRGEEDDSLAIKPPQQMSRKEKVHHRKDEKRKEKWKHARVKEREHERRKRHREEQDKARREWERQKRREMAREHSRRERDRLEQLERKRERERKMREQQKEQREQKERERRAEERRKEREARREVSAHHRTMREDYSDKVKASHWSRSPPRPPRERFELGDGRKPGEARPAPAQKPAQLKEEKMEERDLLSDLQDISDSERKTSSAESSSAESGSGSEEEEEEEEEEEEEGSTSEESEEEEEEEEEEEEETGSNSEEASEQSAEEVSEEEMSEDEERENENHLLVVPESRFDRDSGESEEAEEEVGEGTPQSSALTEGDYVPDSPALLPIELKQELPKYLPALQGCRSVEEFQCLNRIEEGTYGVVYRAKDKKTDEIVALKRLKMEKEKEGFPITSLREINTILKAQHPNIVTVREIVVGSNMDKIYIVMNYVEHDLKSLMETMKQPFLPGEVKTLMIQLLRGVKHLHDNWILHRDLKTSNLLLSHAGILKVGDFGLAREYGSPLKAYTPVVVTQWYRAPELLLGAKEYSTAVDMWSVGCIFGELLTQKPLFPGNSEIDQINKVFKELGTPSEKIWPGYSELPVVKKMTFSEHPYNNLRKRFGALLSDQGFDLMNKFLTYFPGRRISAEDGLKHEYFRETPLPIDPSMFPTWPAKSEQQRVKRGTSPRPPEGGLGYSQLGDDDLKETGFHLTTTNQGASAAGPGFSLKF

CDK3/Cyclin E1 = CDK3/Cyclin E1 (Homo sapiens, UniProt Q00526); assay: NanoBRET live-cell target engagement, CDK3-NanoLuc/Cyclin E1 in HEK-293; assay type: binding
CDK10/Cyclin L2 = CDK10/Cyclin L2 (Homo sapiens, UniProt Q15131); assay: NanoBRET live-cell target engagement, CDK10-NanoLuc/Cyclin L2 in HEK-293; conditions: 10µM
CDK20/Cyclin H = CDK20/Cyclin H (Homo sapiens, UniProt Q8IZL9); assay: NanoBRET live-cell target engagement, NanoLuc-CDK20/Cyclin H in HEK-293; assay type: binding; conditions: 10µM
CDK12/Cyclin K = CDK12/Cyclin K (Homo sapiens, UniProt Q9NYV4); assay: NanoBRET live-cell target engagement, CDK12-NanoLuc/Cyclin K in HEK-293; assay type: binding; conditions: 10µM
CDK12/Cyclin K, sequence (Q9NYV4 1-1481 isoform Q9NYV4-2): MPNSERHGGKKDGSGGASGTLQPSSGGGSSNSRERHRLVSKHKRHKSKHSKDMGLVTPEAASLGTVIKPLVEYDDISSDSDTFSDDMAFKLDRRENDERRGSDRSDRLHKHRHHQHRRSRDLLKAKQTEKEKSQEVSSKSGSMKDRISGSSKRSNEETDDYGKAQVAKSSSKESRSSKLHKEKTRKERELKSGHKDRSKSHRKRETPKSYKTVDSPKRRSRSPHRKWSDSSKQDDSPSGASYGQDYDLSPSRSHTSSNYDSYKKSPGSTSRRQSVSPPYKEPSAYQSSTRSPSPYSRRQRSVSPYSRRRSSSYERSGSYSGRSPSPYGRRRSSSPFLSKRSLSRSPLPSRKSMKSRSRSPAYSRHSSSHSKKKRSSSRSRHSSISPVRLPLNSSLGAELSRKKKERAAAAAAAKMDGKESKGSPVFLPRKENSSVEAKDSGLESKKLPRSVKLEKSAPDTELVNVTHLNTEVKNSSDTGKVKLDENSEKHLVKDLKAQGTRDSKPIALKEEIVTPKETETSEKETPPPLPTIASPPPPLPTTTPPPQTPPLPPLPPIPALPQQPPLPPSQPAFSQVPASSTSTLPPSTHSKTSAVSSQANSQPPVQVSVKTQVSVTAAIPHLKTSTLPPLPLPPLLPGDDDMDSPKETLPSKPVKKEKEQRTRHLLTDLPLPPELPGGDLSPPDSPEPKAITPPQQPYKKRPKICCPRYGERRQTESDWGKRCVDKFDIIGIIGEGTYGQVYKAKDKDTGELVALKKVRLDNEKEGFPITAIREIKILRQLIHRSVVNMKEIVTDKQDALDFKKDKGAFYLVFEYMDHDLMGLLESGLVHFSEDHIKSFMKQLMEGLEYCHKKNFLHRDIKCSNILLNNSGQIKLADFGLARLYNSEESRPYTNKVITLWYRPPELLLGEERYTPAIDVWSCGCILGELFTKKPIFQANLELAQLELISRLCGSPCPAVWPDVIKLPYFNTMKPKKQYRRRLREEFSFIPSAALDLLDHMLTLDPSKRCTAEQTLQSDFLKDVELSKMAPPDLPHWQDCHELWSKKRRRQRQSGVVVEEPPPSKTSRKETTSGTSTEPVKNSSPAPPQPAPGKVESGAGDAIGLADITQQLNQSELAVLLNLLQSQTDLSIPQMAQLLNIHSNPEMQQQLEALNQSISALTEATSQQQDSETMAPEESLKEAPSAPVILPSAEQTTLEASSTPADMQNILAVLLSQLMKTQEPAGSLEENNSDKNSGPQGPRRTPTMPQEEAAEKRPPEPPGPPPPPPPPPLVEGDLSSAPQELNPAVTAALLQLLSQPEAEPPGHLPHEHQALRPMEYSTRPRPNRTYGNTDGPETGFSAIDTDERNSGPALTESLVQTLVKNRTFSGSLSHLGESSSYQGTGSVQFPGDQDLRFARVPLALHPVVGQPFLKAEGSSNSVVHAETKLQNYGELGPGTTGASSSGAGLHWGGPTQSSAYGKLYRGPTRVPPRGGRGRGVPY
CDK12/Cyclin K, sequence (O75909 whole entry partner): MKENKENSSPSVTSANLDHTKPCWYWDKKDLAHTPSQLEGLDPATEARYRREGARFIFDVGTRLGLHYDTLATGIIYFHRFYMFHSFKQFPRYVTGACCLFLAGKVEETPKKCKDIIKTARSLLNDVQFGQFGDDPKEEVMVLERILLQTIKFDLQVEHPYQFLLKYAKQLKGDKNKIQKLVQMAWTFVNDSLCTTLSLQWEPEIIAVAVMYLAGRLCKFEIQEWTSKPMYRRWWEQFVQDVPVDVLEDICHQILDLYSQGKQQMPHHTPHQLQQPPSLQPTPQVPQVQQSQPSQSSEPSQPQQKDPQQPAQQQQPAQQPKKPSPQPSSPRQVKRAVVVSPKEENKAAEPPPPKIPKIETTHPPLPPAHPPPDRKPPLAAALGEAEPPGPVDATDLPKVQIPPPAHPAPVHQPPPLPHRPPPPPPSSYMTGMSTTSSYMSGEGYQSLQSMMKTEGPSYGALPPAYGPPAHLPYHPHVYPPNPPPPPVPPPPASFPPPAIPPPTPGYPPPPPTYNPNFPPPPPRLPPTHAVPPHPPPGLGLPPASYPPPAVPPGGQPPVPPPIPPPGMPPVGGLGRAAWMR

CDK9/Cyclin K, sequence (P50750 whole entry): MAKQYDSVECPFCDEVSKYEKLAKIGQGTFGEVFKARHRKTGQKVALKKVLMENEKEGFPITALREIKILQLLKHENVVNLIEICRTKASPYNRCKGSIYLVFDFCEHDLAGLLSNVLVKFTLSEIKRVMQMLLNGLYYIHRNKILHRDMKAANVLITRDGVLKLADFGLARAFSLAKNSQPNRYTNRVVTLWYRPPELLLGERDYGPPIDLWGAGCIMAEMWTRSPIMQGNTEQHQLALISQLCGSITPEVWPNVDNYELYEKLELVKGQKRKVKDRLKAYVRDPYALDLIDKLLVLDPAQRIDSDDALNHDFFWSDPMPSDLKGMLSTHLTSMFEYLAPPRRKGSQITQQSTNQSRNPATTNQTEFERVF
CDK9/Cyclin K, sequence (O75909 whole entry partner): as the sequence (O75909 whole entry partner) above
CDK7, sequence (P50613 whole entry): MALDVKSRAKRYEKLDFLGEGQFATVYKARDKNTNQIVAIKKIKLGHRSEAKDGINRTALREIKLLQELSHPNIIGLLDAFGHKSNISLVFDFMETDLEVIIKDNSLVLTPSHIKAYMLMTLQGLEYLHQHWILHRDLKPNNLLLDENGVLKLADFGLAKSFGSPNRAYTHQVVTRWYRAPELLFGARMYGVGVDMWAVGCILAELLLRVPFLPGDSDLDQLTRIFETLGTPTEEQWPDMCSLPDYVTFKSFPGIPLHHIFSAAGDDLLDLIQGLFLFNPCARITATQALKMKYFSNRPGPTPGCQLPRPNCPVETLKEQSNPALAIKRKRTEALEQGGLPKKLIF
CDK18/Cyclin Y, sequence (Q07002 whole entry): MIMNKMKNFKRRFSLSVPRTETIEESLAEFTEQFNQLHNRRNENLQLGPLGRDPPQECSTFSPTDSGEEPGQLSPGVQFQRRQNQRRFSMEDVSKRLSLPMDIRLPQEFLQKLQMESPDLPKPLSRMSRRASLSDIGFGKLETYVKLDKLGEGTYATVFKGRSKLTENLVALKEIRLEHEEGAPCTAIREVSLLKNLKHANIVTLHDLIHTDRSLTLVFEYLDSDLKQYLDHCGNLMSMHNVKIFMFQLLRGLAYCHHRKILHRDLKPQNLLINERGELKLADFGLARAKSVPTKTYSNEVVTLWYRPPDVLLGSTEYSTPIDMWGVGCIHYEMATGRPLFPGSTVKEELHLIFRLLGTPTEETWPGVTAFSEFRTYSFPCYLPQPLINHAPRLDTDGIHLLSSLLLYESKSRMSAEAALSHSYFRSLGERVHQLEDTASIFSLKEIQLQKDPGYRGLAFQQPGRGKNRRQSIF
CDK18/Cyclin Y, sequence (Q8ND76 whole entry partner): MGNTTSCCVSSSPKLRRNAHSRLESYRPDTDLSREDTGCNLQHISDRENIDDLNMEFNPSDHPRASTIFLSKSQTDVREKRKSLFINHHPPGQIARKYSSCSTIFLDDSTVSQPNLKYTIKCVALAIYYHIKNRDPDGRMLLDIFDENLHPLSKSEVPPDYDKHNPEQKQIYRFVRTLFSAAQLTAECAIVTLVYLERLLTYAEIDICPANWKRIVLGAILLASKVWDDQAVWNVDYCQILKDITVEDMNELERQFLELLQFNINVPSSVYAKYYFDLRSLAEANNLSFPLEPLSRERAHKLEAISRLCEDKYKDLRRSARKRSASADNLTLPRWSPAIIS
CDK8/Cyclin C, sequence (P49336 whole entry): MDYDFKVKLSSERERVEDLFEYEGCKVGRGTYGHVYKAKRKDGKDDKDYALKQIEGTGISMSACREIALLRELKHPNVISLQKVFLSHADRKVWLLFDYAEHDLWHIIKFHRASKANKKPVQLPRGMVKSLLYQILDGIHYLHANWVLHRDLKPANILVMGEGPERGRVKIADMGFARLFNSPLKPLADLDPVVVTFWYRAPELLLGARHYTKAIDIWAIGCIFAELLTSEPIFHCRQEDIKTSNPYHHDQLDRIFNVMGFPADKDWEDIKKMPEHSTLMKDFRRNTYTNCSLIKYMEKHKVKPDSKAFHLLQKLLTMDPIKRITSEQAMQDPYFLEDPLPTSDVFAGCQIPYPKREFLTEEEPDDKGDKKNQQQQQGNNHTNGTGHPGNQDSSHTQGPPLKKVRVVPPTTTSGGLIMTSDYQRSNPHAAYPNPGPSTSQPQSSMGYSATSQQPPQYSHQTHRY
CDK8/Cyclin C, sequence (P24863 whole entry partner): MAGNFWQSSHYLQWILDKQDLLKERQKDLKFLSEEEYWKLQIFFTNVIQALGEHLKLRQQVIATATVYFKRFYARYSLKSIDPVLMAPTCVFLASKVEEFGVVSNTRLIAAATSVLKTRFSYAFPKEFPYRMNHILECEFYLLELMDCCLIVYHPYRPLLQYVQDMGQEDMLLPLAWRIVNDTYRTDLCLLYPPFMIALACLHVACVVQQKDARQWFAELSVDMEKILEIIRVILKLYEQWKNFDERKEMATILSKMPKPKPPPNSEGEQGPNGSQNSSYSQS
CDK15/Cyclin Y, sequence (Q96Q40 whole entry): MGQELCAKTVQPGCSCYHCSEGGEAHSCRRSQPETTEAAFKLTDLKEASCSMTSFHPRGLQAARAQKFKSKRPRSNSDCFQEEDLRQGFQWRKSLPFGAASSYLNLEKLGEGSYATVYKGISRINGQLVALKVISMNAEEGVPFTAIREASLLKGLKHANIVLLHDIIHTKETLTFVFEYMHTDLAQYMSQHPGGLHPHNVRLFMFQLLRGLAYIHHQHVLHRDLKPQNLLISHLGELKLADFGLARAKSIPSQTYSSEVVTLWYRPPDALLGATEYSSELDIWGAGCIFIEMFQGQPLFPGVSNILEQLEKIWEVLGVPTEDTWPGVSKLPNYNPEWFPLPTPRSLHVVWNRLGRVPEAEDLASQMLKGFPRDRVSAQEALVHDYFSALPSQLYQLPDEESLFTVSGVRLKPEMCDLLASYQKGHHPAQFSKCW
CDK15/Cyclin Y, sequence (Q8ND76 whole entry partner): as the sequence (Q8ND76 whole entry partner) above

SMILES: O=C1NC(=NCc2cccs2)S/C1=C\c1ccc2ncccc2c1 [RO-3306]
- CDK14/Y Inhibition at 10µM (%) (CDK14/Cyclin Y; average of experiments): 0.0648%
- CDK14/Y Inhibition at 10µM (%) (CDK14/Cyclin Y; independent experiment 1): 3.4%
- CDK14/Y Inhibition at 10µM (%) (CDK14/Cyclin Y; independent experiment 2): -3.3%
- CDK13/K Inhibition at 10µM (%) (CDK13/Cyclin K; average of experiments): 7.2%
- CDK13/K Inhibition at 10µM (%) (CDK13/Cyclin K; independent experiment 1): 3.3%
- CDK13/K Inhibition at 10µM (%) (CDK13/Cyclin K; independent experiment 2): 11.1%
- CDK8/C Inhibition at 10µM (%) (CDK8/Cyclin C; average of experiments): 17.8%
- CDK8/C Inhibition at 10µM (%) (CDK8/Cyclin C; independent experiment 1): 15.7%
- CDK8/C Inhibition at 10µM (%) (CDK8/Cyclin C; independent experiment 2): 20.0%
- CDK4/D1 Inhibition at 10µM (%) (CDK4/Cyclin D1; average of experiments): -19.5%
- CDK4/D1 Inhibition at 10µM (%) (CDK4/Cyclin D1; independent experiment 1): 11.3%
- CDK4/D1 Inhibition at 10µM (%) (CDK4/Cyclin D1; independent experiment 2): -50.4%
- CDK16/Y Inhibition at 10µM (%) (CDK16/Cyclin Y; independent experiment 1): 47.1%
- CDK16/Y Inhibition at 10µM (%) (CDK16/Cyclin Y; independent experiment 2): 19.7%
- CDK6/D1 Inhibition at 10µM (%) (CDK6/Cyclin D1; average of experiments): 15.6%
- CDK6/D1 Inhibition at 10µM (%) (CDK6/Cyclin D1; independent experiment 1): 22.8%
- CDK6/D1 Inhibition at 10µM (%) (CDK6/Cyclin D1; independent experiment 2): 8.5%
- CDK5/CDK5R1 Inhibition at 10µM (%) (CDK5/CDK5R1; average of experiments): -1.8%
- CDK5/CDK5R1 Inhibition at 10µM (%) (CDK5/CDK5R1; independent experiment 1): 10.9%
- CDK5/CDK5R1 Inhibition at 10µM (%) (CDK5/CDK5R1; independent experiment 2): -14.5%
- CDK7 Inhibition at 10µM (%) (CDK7; average of experiments): 57.8%
- CDK7 Inhibition at 10µM (%) (CDK7; independent experiment 1): 37.4%
- CDK7 Inhibition at 10µM (%) (CDK7; independent experiment 2): 78.3%
- CDK19/C Inhibition at 10µM (%) (CDK19/Cyclin C; average of experiments): 19.5%
- CDK19/C Inhibition at 10µM (%) (CDK19/Cyclin C; independent experiment 1): 15.2%
- CDK19/C Inhibition at 10µM (%) (CDK19/Cyclin C; independent experiment 2): 23.8%
- CDK1/E1 Inhibition at 10µM (%) (CDK1/Cyclin E1; average of experiments): 81.7%
- CDK1/E1 Inhibition at 10µM (%) (CDK1/Cyclin E1; independent experiment 1): 78.1%
- CDK1/E1 Inhibition at 10µM (%) (CDK1/Cyclin E1; independent experiment 2): 85.3%
- CDK18/Y Inhibition at 10µM (%) (CDK18/Cyclin Y; average of experiments): 16.9%
- CDK18/Y Inhibition at 10µM (%) (CDK18/Cyclin Y; independent experiment 1): 3.1%
- CDK18/Y Inhibition at 10µM (%) (CDK18/Cyclin Y; independent experiment 2): 30.7%
- CDK11b/L2 Inhibition at 10µM (%) (CDK11B/Cyclin L2; average of experiments): 10.3%
- CDK11b/L2 Inhibition at 10µM (%) (CDK11B/Cyclin L2; independent experiment 1): 7.5%
- CDK11b/L2 Inhibition at 10µM (%) (CDK11B/Cyclin L2; independent experiment 2): 13.1%
- CDK9/K Inhibition at 10µM (%) (CDK9/Cyclin K; average of experiments): 29.2%
- CDK9/K Inhibition at 10µM (%) (CDK9/Cyclin K; independent experiment 1): 10.0%
- CDK9/K Inhibition at 10µM (%) (CDK9/Cyclin K; independent experiment 2): 48.5%
- CDK15/Y Inhibition at 10µM (%) (CDK15/Cyclin Y; average of experiments): 22.3%
- CDK15/Y Inhibition at 10µM (%) (CDK15/Cyclin Y; independent experiment 1): 12.8%
- CDK15/Y Inhibition at 10µM (%) (CDK15/Cyclin Y; independent experiment 2): 31.8%
- CDK17/Y Inhibition at 10µM (%) (CDK17/Cyclin Y; average of experiments): 40.0%
- CDK17/Y Inhibition at 10µM (%) (CDK17/Cyclin Y; independent experiment 1): 13.8%
- CDK17/Y Inhibition at 10µM (%) (CDK17/Cyclin Y; independent experiment 2): 66.1%
- CDK11a/L2 Inhibition at 10µM (%) (CDK11A/Cyclin L2; average of experiments): 25.4%
- CDK11a/L2 Inhibition at 10µM (%) (CDK11A/Cyclin L2; independent experiment 1): 51.4%
- CDK11a/L2 Inhibition at 10µM (%) (CDK11A/Cyclin L2; independent experiment 2): -0.5%
- CDK3/E1 Inhibition at 10µM (%) (CDK3/Cyclin E1; average of experiments): 74.0%
- CDK3/E1 Inhibition at 10µM (%) (CDK3/Cyclin E1; independent experiment 1): 51.6%
- CDK3/E1 Inhibition at 10µM (%) (CDK3/Cyclin E1; independent experiment 2): 96.3%
- IC50 (CDK3/Cyclin E1; independent experiment 1, read-out: CDK3/E1 IC50): 140 nM
- IC50 (CDK3/Cyclin E1; independent experiment 2, read-out: CDK3/E1 IC50): 280 nM
- IC50 (CDK3/Cyclin E1; independent experiment 3, read-out: CDK3/E1 IC50): 184 nM
- IC50 (CDK3/Cyclin E1; live HEK-293, 2 h, mean ± S.E.M. (n=3) or mean (n=2), read-out: IC50 for CDK/cyclin complexes, CDK3/E1): 200 nM
- CDK10/L2 Inhibition at 10µM (%) (CDK10/Cyclin L2; average of experiments): 22.6%
- CDK10/L2 Inhibition at 10µM (%) (CDK10/Cyclin L2; independent experiment 1): 6.5%
- CDK10/L2 Inhibition at 10µM (%) (CDK10/Cyclin L2; independent experiment 2): 38.7%
- CDK20/H Inhibition at 10µM (%) (CDK20/Cyclin H; independent experiment 1): 63.6%
- CDK20/H Inhibition at 10µM (%) (CDK20/Cyclin H; independent experiment 2): 19.4%
- CDK12/K Inhibition at 10µM (%) (CDK12/Cyclin K; average of experiments): 10.6%
- CDK12/K Inhibition at 10µM (%) (CDK12/Cyclin K; independent experiment 1): 8.2%
- CDK12/K Inhibition at 10µM (%) (CDK12/Cyclin K; independent experiment 2): 13.0%
